In patent publication US20080293801A1, “Solid Amorphous Dispersions of An Mtp Inhibitor For Treatment of Obesity” (PFizer Inc., priority 2003, published 2008):
“And” between values parts separate entries of the source, which are not always exact repeats. Equal entries are not always repeated. Marks after values point to notes of the source that are not given here.

Assays:
[1] = In vitro dissolution test in model fasted duodenal solution (MFDS); type: physicochemical; conditions: MTC 500 μg/mL; for AUC / Drug A Concentration: MFDS pH 6.5, 37° C.
Method: Samples of Example 1 and Control C1 were added to respective microcentrifuge tubes in duplicate. For these tests, a sufficient amount of material was added so that the maximum theoretical concentration of drug (MTC) would have been 500 μg/mL, if all of the drug had dissolved. The tubes were placed in a 37° C. temperature-controlled chamber, and 1.8 mL model fasted duodenal solution, or “MFDS” was added to each respective tube. The MFDS consisted of 1.8 mL PBS containing 0.5 wt % sodium taurocholic acid and 1-palmitoyl-2-oleyl-sn-glycero-3-phosphocholine (NaTC/POPC, with a 4/1 weight ratio) at pH 6.5 and adjusted to 290 mOsm/kg with NaCl:KCl (20.4:1 wt/wt). The samples were quickly mixed using a vortex mixer for about 60 seconds. The samples were centrifuged at 13,000 G at 37° C. for 1 minute. The resulting supernatant solution was then sampled and diluted 1:6 (by volume) with methanol and then analyzed by high-performance liquid chromatography (HPLC) using a Phenomenex Luna, phenyl-hexyl 5 μm column with a mobile phase consisting of 70:30 (vol:vol) acetonitrile: water at a flow rate of 1 ml/min. Drug concentration was measured using UV absorbance at 241 nm. The contents of each respective tube were mixed on the vortex mixer and allowed to stand undisturbed at 37° C. until the next sample was taken. […]
The concentrations of drug obtained in these samples were used to determine the maximum dissolved drug concentration at 90 minutes (MDC90) and the area under the dissolved drug concentration versus time curve (AUC90) during the initial ninety minutes.
For each test, dispersions were added to microcentrifuge tubes in duplicate. For these tests, a sufficient amount of material was added so that the maximum theoretical concentration (MTC) would have been 500 μg/mL, if all of the drug had dissolved. The tubes were placed in a 37° C. temperature-controlled chamber, and 1.8 mL PBS containing 0.5 wt % sodium taurocholic acid and 1-palmitoyl-2-oleyl-sn-glycero-3-phosphocholine (NaTC/POPC, with a 4/1 weight ratio) at pH 6.5 and 290 mOsm/kg (model fasted duodenal solution, “MFDS”) was added to each respective tube. The samples were quickly mixed using a vortex mixer for about 60 seconds. The samples were centrifuged at 13,000 G at 37° C. for 1 minute. The resulting supernatant solution was then sampled and diluted 1:6 (by volume) with methanol and then analyzed by HPLC as described above. The contents of each respective tube were mixed on the vortex mixer and allowed to stand undisturbed at 37° C. until the next sample was taken. […]
The concentrations of drug obtained in these samples were used to determine the MDC90 and the AUC90 during the initial ninety minutes.

[2] = Solubility of the lowest energy crystalline form of Drug A in water; type: physicochemical; conditions: lowest energy crystalline form presently known
Method: Drug A is an MTP inhibitor intended for the treatment of obesity. The solubility of the lowest energy crystalline form of Drug A presently known in water is less than 0.6 μg/ml. Drug A is nonionizable, and has a cLog P of about 7.8. These characteristics contribute to its water insoluble nature.

For CN(Cc1ccccc1)C(=O)[C@@H](NC(=O)c1cc2cc(NC(=O)c3ccccc3-c3ccc(C(F)(F)F)cc3)ccc2n1C)c1ccccc1 [Example C1], the AUC90 ([1]; area under dissolved drug concentration vs time curve, initial 90 minutes, MFDS) was 170 µg·min/mL and 200 µg·min/mL, the MDC90 ([1]; maximum dissolved drug concentration, initial 90 minutes, MFDS) was 3.1 µg/mL and 3 µg/mL and the AUC ([1]; time 0 min) was 0 µg·min/mL. The “Drug A Concentration” value ([1]; time 0 min) was 0 µg/mL, the AUC ([1]; time 4 min) was 0 µg·min/mL and the “Drug A Concentration” value ([1]; time 4 min) was 0.0* μg/mL and 0 μg/mL. For the same compound, the “Drug A Concentration” value ([1]; time 10 min) was 2.6 µg/mL and 3 µg/mL, the “Drug A Concentration” value ([1]; time 20 min) was 3.1 µg/mL and 3 µg/mL and the AUC ([1]; time 40 min) was 93 µg·min/mL and 100 µg·min/mL. The “Drug A Concentration” value ([1]; time 40 min) was 2.6 µg/mL and 3 µg/mL, the AUC ([1]; time 90 min) was 170 µg·min/mL and 200 µg·min/mL and the AUC ([1]; time 1200 min) was 800 µg·min/mL. The “Drug A Concentration” value ([1]; time 1200 min) was 0.8 µg/mL.
With CN(Cc1ccccc1)C(=O)[C@@H](NC(=O)c1cc2cc(NC(=O)c3ccccc3-c3ccc(C(F)(F)F)cc3)ccc2n1C)c1ccccc1 [Drug A, (S)—N-{2-[benzyl(methyl)amino]-2-oxo-1-phenylethyl}-1-methyl-5-[4′-(trifluoromethyl)[1,1′-biphenyl]-2-carboxamido]-1H-indole-2-carboxamide] the solubility [2] was < 0.6 µg/mL.
